From ChEMBL document CHEMBL5465560, “Selectivity Literature for EUbOPEN Chemogenomic Library” (2024)
Blank lines part the entries; values can stand above or below the compound they belong to.

Assays:
[1] = target: Vascular endothelial growth factor receptor 2 (Homo sapiens, UniProt P35968); experiment: Selectivity interaction (KinomeScan (DiscoverX)) EUB0001049a KDR; details: at 1 µM
[2] = target: Tyrosine-protein kinase BTK (Homo sapiens, UniProt Q06187); experiment: Selectivity interaction (ActivX KiNativ screen (kinase selectivity in THP-1 cell lysates)) EUB0000639a BTK; format: subcellular; details: lysate, at 0.04 µM
[3] = target: Tyrosine-protein kinase JAK1 (Homo sapiens, UniProt P23458); experiment: Selectivity interaction (ActivX KiNativ screen (kinase selectivity in THP-1 cell lysates)) EUB0000639a JAK1; format: subcellular; details: lysate, at 0.01 µM
Tyrosine-protein kinase JAK1, sequence (P23458 whole entry): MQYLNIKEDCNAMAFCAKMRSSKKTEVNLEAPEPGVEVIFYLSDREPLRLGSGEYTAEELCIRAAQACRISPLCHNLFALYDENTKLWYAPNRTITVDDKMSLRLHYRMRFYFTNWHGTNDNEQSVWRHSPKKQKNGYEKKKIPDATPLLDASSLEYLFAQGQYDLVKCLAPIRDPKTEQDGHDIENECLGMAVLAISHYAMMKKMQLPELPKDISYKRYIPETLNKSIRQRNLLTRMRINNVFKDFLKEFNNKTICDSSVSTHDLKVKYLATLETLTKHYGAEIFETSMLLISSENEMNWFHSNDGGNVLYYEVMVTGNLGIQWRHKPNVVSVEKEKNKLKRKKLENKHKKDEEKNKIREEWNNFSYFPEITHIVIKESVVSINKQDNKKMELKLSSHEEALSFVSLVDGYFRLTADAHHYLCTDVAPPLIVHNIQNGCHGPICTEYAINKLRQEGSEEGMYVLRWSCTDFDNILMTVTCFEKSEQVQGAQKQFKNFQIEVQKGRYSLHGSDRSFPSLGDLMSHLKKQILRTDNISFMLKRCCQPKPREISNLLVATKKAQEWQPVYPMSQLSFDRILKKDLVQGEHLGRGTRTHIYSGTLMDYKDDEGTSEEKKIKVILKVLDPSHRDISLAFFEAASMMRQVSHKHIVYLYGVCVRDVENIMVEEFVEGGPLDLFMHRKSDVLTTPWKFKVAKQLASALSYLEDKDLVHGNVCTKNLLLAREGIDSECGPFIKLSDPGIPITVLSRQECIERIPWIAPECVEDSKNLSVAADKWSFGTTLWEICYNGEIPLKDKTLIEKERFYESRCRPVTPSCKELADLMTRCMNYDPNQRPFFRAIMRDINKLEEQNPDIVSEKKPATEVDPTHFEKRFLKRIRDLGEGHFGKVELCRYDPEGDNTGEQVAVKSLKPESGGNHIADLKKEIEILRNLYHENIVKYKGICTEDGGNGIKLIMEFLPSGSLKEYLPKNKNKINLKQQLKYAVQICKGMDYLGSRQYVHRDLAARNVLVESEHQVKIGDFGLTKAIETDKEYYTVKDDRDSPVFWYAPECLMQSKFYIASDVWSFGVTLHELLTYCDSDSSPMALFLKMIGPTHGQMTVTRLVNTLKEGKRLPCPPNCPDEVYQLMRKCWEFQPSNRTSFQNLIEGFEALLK

[4] = target: T1, Interleukin-1 receptor-associated kinase 4 (Homo sapiens) (UniProt Q9NWZ3); experiment: Selectivity interaction (Kinase panel (Z-LYTE Assay)) EUB0001632a IRAK4; details: at 10 µM
T1 sequence (whole entry): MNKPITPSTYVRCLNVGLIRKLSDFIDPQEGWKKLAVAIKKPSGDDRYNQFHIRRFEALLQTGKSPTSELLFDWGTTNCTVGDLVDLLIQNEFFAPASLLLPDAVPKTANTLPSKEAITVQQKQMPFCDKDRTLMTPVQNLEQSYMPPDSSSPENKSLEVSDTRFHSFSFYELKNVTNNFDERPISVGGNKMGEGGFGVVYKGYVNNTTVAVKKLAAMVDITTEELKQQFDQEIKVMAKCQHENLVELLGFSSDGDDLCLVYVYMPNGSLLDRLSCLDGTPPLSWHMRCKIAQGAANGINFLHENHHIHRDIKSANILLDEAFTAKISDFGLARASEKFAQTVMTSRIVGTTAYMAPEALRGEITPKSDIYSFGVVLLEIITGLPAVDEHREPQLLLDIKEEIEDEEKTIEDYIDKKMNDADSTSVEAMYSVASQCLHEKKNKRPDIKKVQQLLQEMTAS

[5] = target: T2, Aurora kinase C (Homo sapiens) (UniProt Q9UQB9); experiment: Selectivity interaction (ProQinase) EUB0000171b AURKC
T2 sequence (whole entry): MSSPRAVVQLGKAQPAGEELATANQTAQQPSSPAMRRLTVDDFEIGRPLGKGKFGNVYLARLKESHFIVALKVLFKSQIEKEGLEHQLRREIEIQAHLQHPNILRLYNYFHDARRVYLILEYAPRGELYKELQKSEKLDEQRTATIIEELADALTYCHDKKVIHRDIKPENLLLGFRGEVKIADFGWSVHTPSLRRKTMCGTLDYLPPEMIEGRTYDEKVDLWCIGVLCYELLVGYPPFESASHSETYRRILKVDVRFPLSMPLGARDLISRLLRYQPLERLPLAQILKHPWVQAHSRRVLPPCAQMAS

[6] = target: Vascular endothelial growth factor receptor 3 (Homo sapiens, UniProt P35916); experiment: Selectivity interaction (ProQinase) EUB0000171b FLT4
Vascular endothelial growth factor receptor 3, sequence (P35916 whole entry): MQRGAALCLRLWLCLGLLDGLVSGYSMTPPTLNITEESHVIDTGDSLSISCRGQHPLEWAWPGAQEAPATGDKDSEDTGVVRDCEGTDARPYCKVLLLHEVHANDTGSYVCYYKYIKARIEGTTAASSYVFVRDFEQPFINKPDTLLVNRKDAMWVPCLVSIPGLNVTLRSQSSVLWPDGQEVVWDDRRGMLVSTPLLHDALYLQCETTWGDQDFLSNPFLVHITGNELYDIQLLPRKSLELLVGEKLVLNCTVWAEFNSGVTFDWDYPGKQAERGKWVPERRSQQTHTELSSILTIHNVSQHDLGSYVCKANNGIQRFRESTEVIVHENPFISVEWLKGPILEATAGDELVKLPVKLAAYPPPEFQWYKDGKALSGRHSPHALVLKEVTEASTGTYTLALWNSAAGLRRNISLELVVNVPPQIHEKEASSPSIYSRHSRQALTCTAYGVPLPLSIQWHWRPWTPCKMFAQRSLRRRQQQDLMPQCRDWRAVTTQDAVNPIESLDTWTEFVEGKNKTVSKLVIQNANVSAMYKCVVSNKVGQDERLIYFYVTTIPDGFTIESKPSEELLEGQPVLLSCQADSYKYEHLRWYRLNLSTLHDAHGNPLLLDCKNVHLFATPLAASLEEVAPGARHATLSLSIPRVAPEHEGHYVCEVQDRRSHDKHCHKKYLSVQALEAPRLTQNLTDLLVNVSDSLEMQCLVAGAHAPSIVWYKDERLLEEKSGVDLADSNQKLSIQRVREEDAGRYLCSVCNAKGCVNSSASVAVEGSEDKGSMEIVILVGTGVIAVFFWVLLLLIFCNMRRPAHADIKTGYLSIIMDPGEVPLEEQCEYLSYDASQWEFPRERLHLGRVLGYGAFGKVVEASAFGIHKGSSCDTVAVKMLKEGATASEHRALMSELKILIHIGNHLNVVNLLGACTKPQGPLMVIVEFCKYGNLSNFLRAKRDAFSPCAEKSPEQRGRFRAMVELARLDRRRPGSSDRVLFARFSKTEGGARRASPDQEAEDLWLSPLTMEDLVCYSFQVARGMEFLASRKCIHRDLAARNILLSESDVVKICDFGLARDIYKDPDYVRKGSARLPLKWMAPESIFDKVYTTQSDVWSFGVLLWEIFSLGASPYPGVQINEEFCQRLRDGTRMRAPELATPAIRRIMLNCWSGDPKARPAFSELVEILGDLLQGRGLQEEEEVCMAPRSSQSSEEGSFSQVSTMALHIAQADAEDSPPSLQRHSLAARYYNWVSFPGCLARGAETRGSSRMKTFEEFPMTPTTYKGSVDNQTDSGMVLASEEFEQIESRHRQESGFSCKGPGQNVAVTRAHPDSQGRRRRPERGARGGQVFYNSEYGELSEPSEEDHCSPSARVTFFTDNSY

[7] = target: Maternal embryonic leucine zipper kinase (Homo sapiens) (UniProt Q14680); experiment: Selectivity interaction (Upstate Kinase Profiler service (Millipore)) EUB0000056c MELK; details: at 1 µM
Maternal embryonic leucine zipper kinase (Homo sapiens), sequence (Q14680 whole entry, looked up): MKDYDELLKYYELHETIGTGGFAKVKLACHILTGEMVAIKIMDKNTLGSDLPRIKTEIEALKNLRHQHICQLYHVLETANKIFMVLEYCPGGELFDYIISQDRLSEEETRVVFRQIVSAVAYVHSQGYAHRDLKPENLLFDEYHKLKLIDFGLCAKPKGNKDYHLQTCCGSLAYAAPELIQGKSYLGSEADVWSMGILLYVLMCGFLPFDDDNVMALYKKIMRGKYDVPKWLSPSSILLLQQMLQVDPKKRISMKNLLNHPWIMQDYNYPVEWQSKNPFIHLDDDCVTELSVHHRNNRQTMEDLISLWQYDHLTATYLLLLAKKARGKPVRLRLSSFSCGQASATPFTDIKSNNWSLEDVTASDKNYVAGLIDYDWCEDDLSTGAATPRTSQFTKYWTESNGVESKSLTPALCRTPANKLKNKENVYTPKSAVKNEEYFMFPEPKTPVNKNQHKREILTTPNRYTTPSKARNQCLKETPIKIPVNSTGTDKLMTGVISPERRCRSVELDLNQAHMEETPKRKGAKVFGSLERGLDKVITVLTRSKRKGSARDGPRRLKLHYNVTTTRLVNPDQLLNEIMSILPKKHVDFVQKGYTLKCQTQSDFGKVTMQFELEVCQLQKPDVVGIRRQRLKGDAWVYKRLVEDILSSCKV

[8] = target: T3, Mitogen-activated protein kinase kinase kinase 15 (Homo sapiens) (UniProt Q6ZN16); experiment: Selectivity interaction (KinomeScan (DiscoverX)) EUB0000655a MAP3K15; details: at 10 µM
T3 sequence (whole entry): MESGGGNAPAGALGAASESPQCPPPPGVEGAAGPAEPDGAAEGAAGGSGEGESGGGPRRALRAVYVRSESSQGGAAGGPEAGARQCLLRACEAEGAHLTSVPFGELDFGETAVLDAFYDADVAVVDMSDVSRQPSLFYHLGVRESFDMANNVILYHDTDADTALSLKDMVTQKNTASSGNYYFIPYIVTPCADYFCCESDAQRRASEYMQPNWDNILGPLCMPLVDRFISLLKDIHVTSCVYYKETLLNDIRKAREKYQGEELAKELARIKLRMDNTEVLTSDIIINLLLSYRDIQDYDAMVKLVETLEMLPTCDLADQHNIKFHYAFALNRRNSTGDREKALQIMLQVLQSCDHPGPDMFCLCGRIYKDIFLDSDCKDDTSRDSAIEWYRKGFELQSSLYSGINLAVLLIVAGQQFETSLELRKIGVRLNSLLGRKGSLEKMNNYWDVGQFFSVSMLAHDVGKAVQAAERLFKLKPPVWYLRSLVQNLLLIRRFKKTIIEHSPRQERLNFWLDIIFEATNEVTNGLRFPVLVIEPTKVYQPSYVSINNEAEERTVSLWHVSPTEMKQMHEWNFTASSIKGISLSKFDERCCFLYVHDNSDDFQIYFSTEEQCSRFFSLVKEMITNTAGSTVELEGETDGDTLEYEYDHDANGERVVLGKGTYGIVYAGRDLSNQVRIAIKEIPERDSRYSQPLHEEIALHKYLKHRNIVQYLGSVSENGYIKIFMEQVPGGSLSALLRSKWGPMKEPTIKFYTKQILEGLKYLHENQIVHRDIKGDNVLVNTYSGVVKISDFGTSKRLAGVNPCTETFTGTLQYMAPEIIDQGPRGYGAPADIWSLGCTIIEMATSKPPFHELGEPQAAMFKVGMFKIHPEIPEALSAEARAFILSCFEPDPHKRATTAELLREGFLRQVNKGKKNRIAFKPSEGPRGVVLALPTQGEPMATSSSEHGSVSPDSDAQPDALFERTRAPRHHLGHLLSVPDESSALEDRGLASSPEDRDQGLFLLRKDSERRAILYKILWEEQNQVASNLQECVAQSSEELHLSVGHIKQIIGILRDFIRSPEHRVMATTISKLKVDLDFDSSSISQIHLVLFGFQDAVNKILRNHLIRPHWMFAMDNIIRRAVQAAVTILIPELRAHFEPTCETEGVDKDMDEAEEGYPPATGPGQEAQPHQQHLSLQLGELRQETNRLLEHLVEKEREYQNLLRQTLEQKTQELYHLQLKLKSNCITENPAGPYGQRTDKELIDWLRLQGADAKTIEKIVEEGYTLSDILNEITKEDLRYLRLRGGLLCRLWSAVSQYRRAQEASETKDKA

[9] = target: RAF proto-oncogene serine/threonine-protein kinase (Homo sapiens) (UniProt P04049); experiment: Selectivity interaction (KinomeScan (DiscoverX)) EUB0001619a RAF1; details: at 1 µM
[10] = target: Ribosomal protein S6 kinase alpha-3 (Homo sapiens, UniProt P51812); experiment: Selectivity interaction (KinomeScan (DiscoverX)) EUB0000607a RPS6KA3; details: at 10 µM

Vascular endothelial growth factor receptor 2, sequence (P35968 whole entry): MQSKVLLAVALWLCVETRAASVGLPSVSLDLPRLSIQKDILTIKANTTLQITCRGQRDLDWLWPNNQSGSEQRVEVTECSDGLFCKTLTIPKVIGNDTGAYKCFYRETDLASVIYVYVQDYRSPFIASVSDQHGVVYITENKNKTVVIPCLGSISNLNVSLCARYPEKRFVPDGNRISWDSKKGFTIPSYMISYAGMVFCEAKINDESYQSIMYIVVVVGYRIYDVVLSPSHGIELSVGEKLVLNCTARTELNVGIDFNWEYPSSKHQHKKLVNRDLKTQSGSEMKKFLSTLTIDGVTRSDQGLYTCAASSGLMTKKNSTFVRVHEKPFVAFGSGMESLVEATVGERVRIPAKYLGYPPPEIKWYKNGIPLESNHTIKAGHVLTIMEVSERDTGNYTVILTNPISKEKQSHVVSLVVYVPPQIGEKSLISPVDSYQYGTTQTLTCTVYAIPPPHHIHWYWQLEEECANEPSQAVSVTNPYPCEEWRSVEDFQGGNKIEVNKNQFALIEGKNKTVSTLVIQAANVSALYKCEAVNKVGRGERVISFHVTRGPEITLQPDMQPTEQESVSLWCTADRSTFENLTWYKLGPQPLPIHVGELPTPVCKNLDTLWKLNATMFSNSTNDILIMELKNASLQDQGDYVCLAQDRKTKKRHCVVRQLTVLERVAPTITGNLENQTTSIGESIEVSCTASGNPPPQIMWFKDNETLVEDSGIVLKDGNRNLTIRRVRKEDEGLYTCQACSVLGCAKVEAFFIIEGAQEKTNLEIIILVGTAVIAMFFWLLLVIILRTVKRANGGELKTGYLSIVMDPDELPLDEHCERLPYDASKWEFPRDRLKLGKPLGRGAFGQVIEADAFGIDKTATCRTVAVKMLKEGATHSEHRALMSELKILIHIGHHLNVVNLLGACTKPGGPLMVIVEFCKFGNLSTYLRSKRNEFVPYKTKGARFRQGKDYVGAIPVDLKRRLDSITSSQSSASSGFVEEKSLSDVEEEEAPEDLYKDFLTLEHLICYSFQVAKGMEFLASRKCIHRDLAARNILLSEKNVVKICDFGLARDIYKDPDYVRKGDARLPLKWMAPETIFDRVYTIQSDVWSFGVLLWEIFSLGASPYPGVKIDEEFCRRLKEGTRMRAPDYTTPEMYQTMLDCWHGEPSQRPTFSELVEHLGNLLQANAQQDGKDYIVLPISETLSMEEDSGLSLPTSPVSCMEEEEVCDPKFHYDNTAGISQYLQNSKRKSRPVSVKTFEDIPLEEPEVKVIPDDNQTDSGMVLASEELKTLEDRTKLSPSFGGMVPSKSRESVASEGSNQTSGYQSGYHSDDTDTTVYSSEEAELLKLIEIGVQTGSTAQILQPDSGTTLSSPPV

Compound: COc1cc(Nc2nc(C)cc(-c3cnn4nc(OC)ccc34)n2)cc(C(F)(F)F)c1
% of control [1]: 95%

Compound: CC[C@@H]1[C@H](F)C(=O)N[C@@H]1COc1nccc2cc(C(N)=O)c(OC)cc12 [ZIMLOVISERTIB]
% of inhibition [2]: -17.7% | % of inhibition [3]: -1.9%

Compound: CN(C)CCOc1ccc(-c2nc(-c3ccncc3)c(-c3ccc4c(c3)CC/C4=N\O)[nH]2)cc1
% of control [8]: 100%

Compound: N#Cc1cccc(-c2c[nH]c3ncnc(N4CCOCC4)c23)c1
% of control [9]: 71%

Compound: CNC(=O)Nc1ccc(-c2nc(N3CC4CCC(C3)O4)c3cnn(C4CCC5(CC4)OCCO5)c3n2)cc1
% of control [10]: 100%

The next lines start with the values.

% of control [4]: 2.42%
Compound: Cn1cc(-n2cnc3c(NCc4nc5cc(Cl)c(Cl)cc5[nH]4)nc(N4CCOCC4)nc32)cn1

% of control ([5]; at 1 µM): 86% | % of control ([5]; at 5 µM): 57% | % of control ([6]; at 1 µM): 73% | % of control ([6]; at 5 µM): 68%
Compound: C=CC(=O)Nc1cccc(C(=O)Nc2ccc(Nc3cc(-c4[nH]c(SC)nc4C)ccn3)cc2)c1

% of inhibition [7]: 10%
Compound: Cc1ccc(-c2ccc3c(ccc4sc5c(c43)NC[C@@H](C)NC5=O)n2)cn1
